Data on two compounds can be found in patent publication US6919348B2, “Therapeutic 1,2,3,6-tetrahydropyrimidine-2-one compositions and methods therewith” (priority 2002, dated 2005).

Like-named read-outs stand apart in the source and are kept apart here.

The subject of data set [1] is abrasion on finger. Briefly: Example 3: application to abrasion wound on finger. Type of data set: in vivo, human. To be noted: applied directly to abrasion; icilin 0.8 mg. As for the experimental part:
A subject with an abrasion on their finger (caused by friction) of about 1 square centimeter received 0.8 mg of icilin applied directly to the wound with a swab stick.

Data set [2] has as its system rats. The following applies: cited from earlier work.
The target of data set [3] is TRP(M8) receptor (Rattus norvegicus, UniProt Q8R455). The following applies: cloned and transfected TRP(M8) receptor; McKemy et al. 2002; cited from earlier work.
The subject of data set [4] is mouth, throat and upper alimentary tract. Briefly: Example 7: chewing gum. Type of data set: in vivo, human. How it is done: Two mg of icilin was spread between two wafers of a fruit-flavored chewing gum and chewed for 5 minutes by a subject. […] But after 12 minutes general sensations of coolness were felt in the thoracic internal structures behind the sternum, in the epigastric area. These cooling effects lasted for about 45 minutes. By contrast, the chewing of mentholated gum or mentholated candy, produced after an initial harsh taste, strong cooling of the mouth and throat that lasted only about 10 minutes.
This experiment illustrates important pharmacokinetic differences between icilin and menthol. The effects of mentholated gum are immediate and localized to the mouth and throat. […] Further protection of the icilin by standard encapsulation technology will allow it to reach the distal portions of the gastrointestinal tract such as the lower ileum and colon where it may exert its pharmacological effects as a cold receptor agonist.

The test system of data set [5] is nasal cavity of subject with hay fever. In words: Examples 5 and 6: nasal administration in subject with hay fever. The following applies: for effect on nasal discharge, urge to sneeze, itchy eyelids: inhaled via the nose, hay fever subject. Type of data set: in vivo, human. How it is done: A subject, suffering from hay fever (in this case, seasonal allergy to grass pollen) stopped taking antihistamines for 24 hours and inhaled via the nose 0.5 mg or 2 mg (on 2 separate occasions) of icilin in powder form.
Icilin, dissolved in propylene glycol, was added to a commercial preparation of an anti-allergy nasal spray containing fluticasone to attain a concentration of about 10 mg icilin/ml solution.

For data set [6], the system named is lower eyelid. Briefly: Example 4: application to lower eyelid. Type of data set: in vivo, human. To be noted: for duration of cooling/refreshing effect: icilin 10 mg/ml solution. How it is done: A small quantity of a 10 mg/ml solution of icilin dissolved in propylene glycol was applied with a cotton swab stick to the lower eyelid of a subject. […] This effect lasted for about 45 minutes. […] The eyelids smarted from the harsh irritant actions of menthol. The individual blinked and the eyes were momentarily closed with a small degree of lachrymation. But, after about 1 minute, this discomfort dissipated and the cooling sensations of menthol were felt on the eyelid. The sensations were refreshing and lasted for about 15 minutes and accompanied by a minty odor.
By contrast, menthol cannot be used in eye drops because of its irritant actions.

The nature of data set [7]: Stability at room temperature. In kind it is physicochemical. How it is done: (§1) Icilin is a lemon yellow crystalline powder with a molecular weight of 311 Daltons and a melting point of 229 to 231° C. […] Thus, icilin would be considered as a lipophilic, hydrophobic compound that is not easily miscible with aqueous systems. Analogs of icilin, for example, with acetyoxy, ethyl, fluoro, or trifluoromethyl substitutions, retain similar chemical and physical properties and are included within the scope of this invention.

A short description of data set [8]: Solubility in solvents. In kind it is physicochemical. How it is done: as §1
Menthol, by contrast, is a white crystal with a molecular weight of 156 Daltons and a melting point of 41 to 43° C., a temperature slightly above body temperature. […] Some analogs of menthol, e.g. (+)-neomenthol are colorless liquids at room temperature.

Data set [9] has as its system surfaces of the human body. In words: Irritation upon contact with the surfaces of the human body. Type of data set: in vivo.
Data set [10] deals with anorectal area of subject with inflamed hemorrhoids. In words: Example 2: anorectal administration in inflamed hemorrhoids. In kind it is in vivo, human. To be noted: icilin 20 mg/ml in propylene glycol admixed with saline laxative, 2 ml emulsion instilled into rectum. As for the experimental part:
A subject with inflamed hemorrhoids self-administered a commercial suppository, shaped as a 1.5-inch bullet, containing 25 mg of hydrocortisone. The suppository was coated with 5 mg of icilin and 5 mg of WS-23, a menthol analog. Cooling sensations were felt within 5 minutes in the anorectal area extending to the scrotum. Relief of discomfort and itch in the anorectal area lasted for longer than 3 hours. In a similar experiment, icilin, dissolved 20 mg/ml in propylene glycol was admixed with a isotonic sodium chloride solution laxative (containing monobasic sodium phosphate and dibasic sodium phosphate salts), and 2 ml of the emulsion was instilled into the rectum. Again, cooling sensations with relief of itch and discomfort were obtained for 2 hours.

Data set [11] has as its system receptors for cold. The following applies: cited from earlier work.
Data set [12] relates to shaking behavior in the rat. The following applies: cited from earlier work.
In data set [13] the test system is skin or mucous membranes. Briefly: Duration of cooling effect after application to skin or mucous membranes. Type of data set: in vivo, human. To be noted: applied to the skin or mucous membranes, regardless of dose. The source says:
The physico-chemical differences between icilin and menthol confer unique advantages to icilin for manipulating sensory nerve discharges in certain defined clinical situations, as described hereinafter. The first advantage is the site of delivery: menthol cannot be delivered to the eyelids and its environs, the nasal membranes, or the mucous membranes of the anogenital region at high concentrations because it is pungent, stings and irritates. Icilin, on the other hand, can be administered to these sites because it is non-irritating. A second major advantage of icilin is its duration of action. Icilin's actions can be localized at its site of application for a prolonged period because of its lipophilic characteristics and because it can be administered as a powder or dispersed (either in solid form or solubilized) as an emulsion. By contrast, menthol is volatile and rapidly re-distributes and metabolizes in the body so its duration of action is relatively short. For example, icilin applied to nasal membranes can produce refreshing sensations for up to 3 hours.
In practicing the present invention, the topical administration of icilin relieves itching, especially when given in combination with a menthol analog. […]

TRP(M8) receptor, sequence (Q8R455 whole entry): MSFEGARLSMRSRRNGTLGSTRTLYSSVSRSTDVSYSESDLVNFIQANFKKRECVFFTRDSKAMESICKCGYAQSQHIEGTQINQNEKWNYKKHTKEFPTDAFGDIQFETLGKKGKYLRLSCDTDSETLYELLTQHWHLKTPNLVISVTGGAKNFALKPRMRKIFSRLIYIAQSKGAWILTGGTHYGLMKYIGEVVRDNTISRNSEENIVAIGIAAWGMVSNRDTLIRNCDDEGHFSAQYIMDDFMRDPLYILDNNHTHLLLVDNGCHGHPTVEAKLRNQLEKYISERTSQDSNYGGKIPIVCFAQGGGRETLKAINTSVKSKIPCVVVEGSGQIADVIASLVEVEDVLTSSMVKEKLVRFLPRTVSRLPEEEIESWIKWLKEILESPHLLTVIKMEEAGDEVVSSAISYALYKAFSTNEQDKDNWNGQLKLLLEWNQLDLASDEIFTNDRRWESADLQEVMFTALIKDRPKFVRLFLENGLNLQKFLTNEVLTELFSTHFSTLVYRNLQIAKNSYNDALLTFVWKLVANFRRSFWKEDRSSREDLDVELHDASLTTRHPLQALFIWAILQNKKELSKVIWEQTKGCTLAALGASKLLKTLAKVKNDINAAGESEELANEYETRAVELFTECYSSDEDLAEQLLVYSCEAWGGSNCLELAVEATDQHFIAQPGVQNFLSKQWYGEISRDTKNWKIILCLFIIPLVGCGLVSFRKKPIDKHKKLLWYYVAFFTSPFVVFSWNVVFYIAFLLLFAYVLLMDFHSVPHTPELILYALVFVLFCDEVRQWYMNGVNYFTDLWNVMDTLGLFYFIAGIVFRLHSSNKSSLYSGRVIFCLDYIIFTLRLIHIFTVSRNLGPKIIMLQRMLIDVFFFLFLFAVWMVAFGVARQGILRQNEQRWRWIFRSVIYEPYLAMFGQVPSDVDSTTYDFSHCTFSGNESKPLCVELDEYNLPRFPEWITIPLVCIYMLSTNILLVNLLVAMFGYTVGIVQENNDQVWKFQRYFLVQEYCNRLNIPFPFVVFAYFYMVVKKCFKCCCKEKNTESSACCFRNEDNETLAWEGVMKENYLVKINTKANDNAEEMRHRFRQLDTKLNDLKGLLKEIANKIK

Turning to `O=C1NC(c2cccc([N+](=O)[O-])c2)=CCN1c1ccccc1O` [icilin, 1-[2-hydroxy]-4-[3-nitrophenyl]-1,2,3,6-tetrahydropyridimine-2-one], in data set [1], the “effect on pain and coldness at wound site” value is recorded as “pain was lessened”. Also, the “toxicity relative to menthol, by oral median lethal dose” value in data set [2] was “less toxic than menthol”. The “potency relative to menthol in eliciting ion channel current changes” value in [3] is given as “about 200 times”. Further, the “coolness in the mouth or throat” value in data set [4] (2 mg in chewing gum) was “No sensations of coolness”. Also, the “onset of general sensations of coolness” value in data set [4] (2 mg in chewing gum chewed 5 minutes, behind the sternum, epigastric area) was determined as 12 min. In addition, the “duration of cooling effects” value in data set [4] (2 mg in chewing gum, thoracic/epigastric area) is reported as “about 45 minutes”. Besides, the “duration of sense of free and unobstructed airflow / cold sensations” value in data set [5] (0.5 mg or 2 mg powder inhaled via the nose) is listed as “about 3 hours”. The “duration of refreshing sensations” value in data set [5] (applied to nasal membranes) is “up to 3 hours”. Also, the “effect on nasal discharge, urge to sneeze, itchy eyelids” value in data set [5] was “curtailed and terminated”. The “irritation of the eyelid” value in [6] is reported as “without acute irritation”. In data set [6] (10 mg/ml in propylene glycol), the “onset of prickling sensations of cold” value was ≤ 10 min. In [6] (menthol crystals), the “duration of cooling/refreshing effect” value is “about 45 minutes”. The stability entry in data set [7] is reported as “stable at room temperature”. For the same compound, the “solubility in ethanol and acetone” value in [8] is “slightly soluble”. For the same compound, in [8], the solubility in water entry is reported as “virtually insoluble”. For the same compound, the “solubility in organic solvents” value in data set [8] (dimethylsulfoxide, nitromethane, dimethylacetamide and propanediols) was “readily soluble”. Also, the “irritation upon contact with body surfaces” value in data set [9] (powder) is given as “non-irritating”. For the same compound, in data set [10], the “duration of cooling sensations with relief of itch and discomfort” value came out at 2 h. For the same compound, the sensation elicited entry in [11] (0.1 mg applied to the dorsum of the tongue) is “prickling sensations of cold”; in data set [11] (ingestion of 6 mg, on one occasion out of three) it was “sensations of coolness on the cheeks and on the inner surfaces of the arms and legs”. Also, the “potency relative to menthol on shaking behavior” value in data set [12] (rat, molar basis) is 400 times. For the same compound, the behavioral syndrome elicited entry in data set [12] (rats and monkeys, accompanied by hyperthermia, hyperactivity and ptosis) is on record as “wet dog shake behavior”.

Take `CC1CCC(C(C)C)C(O)C1` (stereo not drawn) [menthol, reference compound]: the “effect on pain and coldness at wound site” value in [1] is reported as “did not elicit sensations of coldness or pain reduction”. In [5] (0.8 mg crystals inhaled), the “duration of cooling effect” value fell in the range of 25 to 30 min. Moreover, the “irritation on nasal inhalation” value in data set [5] (inhalation of crystals) was “initial burning sensation”. Besides, the “effect on nasal discharge, urge to sneeze, itchy eyelids” value in data set [5] was “No overt beneficial effects”. The “duration of cooling sensations” value in [13] fell in the range of 15 to 30 min. The “irritation of the eyelid” value in [6] is on record as “sharp discomfort”. In addition, in [6] (menthol crystals), the “duration of cooling/refreshing effect” value is “about 15 minutes” and the “time until discomfort dissipated” value was “about 1 minute”. In [8], the solubility in ethanol entry is “soluble” and the solubility in water result was “slightly soluble”. Moreover, in data set [9] (high concentrations, eyes), the irritation result is on record as “irritating to the eyes”.
